According to PMC9234962, “Optimization of Peptide Linker-Based Fluorescent Ligands for the Histamine H1 Receptor” (Journal of Medicinal Chemistry, 2022):
Square brackets hold non-standard residues; d marks the D form. Side chains are listed from the residue outwards. Peptide text beside a SMILES is read from it. * marks the point of attachment. X1 = O=C(COc1ccc(/C=C/C2=[N+]3C(=Cc4ccc(-c5cccs5)n4[B-]3(F)F)C=C2)cc1)*; Propanoyl(3-Pip(4-O-2-BnPh)) = O=C(CCN1CCC(Oc2ccccc2Cc2ccccc2)CC1)*; BODIPY(FL) = CC1=CC(C)=[N+]2C1=Cc1ccc(CCC(=O)*)n1[B-]2(F)F; Ahx = NCCCCCC(=O)O; βAla = NCCC(=O)O

Target: Nluc-H1R (Homo sapiens, UniProt P35367)
Sequence (P35367 whole entry): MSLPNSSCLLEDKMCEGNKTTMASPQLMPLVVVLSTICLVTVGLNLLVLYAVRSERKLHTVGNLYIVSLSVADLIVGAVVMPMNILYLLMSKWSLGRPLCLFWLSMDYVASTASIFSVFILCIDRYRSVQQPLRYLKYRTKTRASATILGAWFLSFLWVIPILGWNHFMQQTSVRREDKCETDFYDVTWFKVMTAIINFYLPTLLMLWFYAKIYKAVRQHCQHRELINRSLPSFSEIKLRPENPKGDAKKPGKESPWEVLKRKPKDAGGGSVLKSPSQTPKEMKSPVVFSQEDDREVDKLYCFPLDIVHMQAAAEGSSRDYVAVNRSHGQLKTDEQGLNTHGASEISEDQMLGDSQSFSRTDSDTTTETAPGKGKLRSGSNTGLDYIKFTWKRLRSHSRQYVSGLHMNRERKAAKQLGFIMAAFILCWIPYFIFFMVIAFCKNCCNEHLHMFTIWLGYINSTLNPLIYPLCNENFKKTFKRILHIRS
Assay: NanoBRET saturation binding assay on Nluc-H1R expressing HEK293T cells
Set-up: expressed in transfected cells
Settings: saturation binding curves, whole HEK293T cells; for pKD: non-specific with 10 μM mepyramine, mean ± SEM
Excerpt: Total and non-specific saturation binding curves from NanoBRET saturation binding assay were fitted simultaneously using eq 1: [drawing 4] 1 where Bmax is the maximal specific binding, [B] is the concentration of fluorescent ligand in nM, KD is the equilibrium dissociation constant in nM, M is the slope of the non-specific component, and C is the intercept with the Y axis.

Structure (SMILES) | Kd | pKD
Cc1cc(C)n2c1C=C1C=CC(CCC(=O)NCCCCCC(=O)NCCCC[C@H](NC(=O)CCNC(=O)[C@H](C)NC(=O)[C@H](C)NC(=O)[C@H](Cc3ccccc3)NC(=O)CCN3CCC(Oc4ccccc4Cc4ccccc4)CC3)C(N)=O)=[N+]1[B-]2(F)F [Compound 39e, N-((5S,8S,11S,18S)-5-Benzyl-1-(4-(2-benzylphenoxy)piperidin-1-yl)-18-carbamoyl-8,11-dimethyl-3,6,9,12,16-pentaoxo-4,7,10,13,17-pentaazadocosan-22-yl)-6-(3-(5,5-difluoro-7,9-dimethyl-5H-4λ^4,5λ^4-dipyrrolo[1,2-c:2’,1’-f][1,3,2]diazaborinin-3-yl)propanamido)hexanamide] ({Propanoyl(3-Pip(4-O-2-BnPh))}-FAA[βAla]K([Ahx-BODIPY(FL)])-NH2) | 2690 nM | 5.57 ± 0.05
CC(C)[C@H](NC(=O)CCN1CCC(Oc2ccccc2Cc2ccccc2)CC1)C(=O)N[C@@H](CO)C(=O)N[C@@H](CC(N)=O)C(=O)NCCC(=O)N[C@@H](CCCCNC(=O)CCCCCNC(=O)COc1ccc(/C=C/C2=[N+]3C(=Cc4ccc(-c5cccs5)n4[B-]3(F)F)C=C2)cc1)C(N)=O [Compound 38a, (S)-N^1-(3-(((S)-1-Amino-6-(6-(2-(4-((E)-2-(5,5-difluoro-7-(thiophen-2-yl)-5H-4λ^4,5λ^4-dipyrrolo[1,2-c:2’,1’-f][1,3,2]diazaborinin-3-yl)vinyl)phenoxy)acetamido)hexanamido)-1-oxohexan-2-yl)amino)-3-oxopropyl)-2-((S)-2-((S)-2-(3-(4-(2-benzylphenoxy)piperidin-1-yl)propanamido)-3-methylbutanamido)-3-hydroxypropanamido)succinamide] ({Propanoyl(3-Pip(4-O-2-BnPh))}-VSN[βAla]K([Ahx-X1])-NH2) | 18 nM | 7.74 ± 0.06
CC(C)[C@H](NC(=O)CCN1CCC(Oc2ccccc2Cc2ccccc2)CC1)C(=O)N[C@@H](CO)C(=O)N[C@@H](CC(N)=O)C(=O)NCCC(=O)N[C@@H](CCCn1cc(COc2ccc(/C=C/C3=[N+]4C(=Cc5ccc(-c6cccs6)n5[B-]4(F)F)C=C3)cc2)nn1)C(N)=O [Compound 28a, (S)-N1-(3-(((S)-1-Amino-5-(4-((4-((E)-2-(5,5-difluoro-7-(thiophen-2-yl)-5H-5λ^4,6λ^4-dipyrrolo[1,2-c:2’,1’-f][1,3,2]diazaborinin-3-yl)vinyl)phenoxy)methyl)-1H-1,2,3-triazol-1-yl)-1-oxopentan-2-yl)amino)-3-oxopropyl)-2-((S)-2-((S)-2-(3-(4-(2-benzylphenoxy)piperidin-1-yl)propanamido)-3-methylbutanamido)-3-hydroxypropanamido)succinamide] | 20 nM | 7.70 ± 0.05
CC(C)[C@H](NC(=O)CCN1CCC(Oc2ccccc2Cc2ccccc2)CC1)C(=O)N[C@@H](CO)C(=O)N[C@@H](Cc1ccc(O)cc1)C(=O)NCCC(=O)N[C@@H](CCCCNC(=O)COc1ccc(/C=C/C2=[N+]3C(=Cc4ccc(-c5cccs5)n4[B-]3(F)F)C=C2)cc1)C(N)=O [Compound 31e, (S)-2-((6S,9S,12S)-16-(4-(2-Benzylphenoxy)piperidin-1-yl)-6-(4-hydroxybenzyl)-9-(hydroxymethyl)-12-isopropyl-5,8,11,14-tetraoxo-4,7,10,13-tetraazahexadecanamido)-6-(2-(4-((E)-2-(5,5-difluoro-7-(thiophen-2-yl)-5H-5λ^4,6λ^4-dipyrrolo[1,2-c:2’,1’-f][1,3,2]diazaborinin-3-yl)vinyl)phenoxy)acetamido)hexanamide] ({Propanoyl(3-Pip(4-O-2-BnPh))}-VSY[βAla]K(X1)-NH2) | 16 nM | 7.80 ± 0.11
CC(C)C[C@H](NC(=O)CCN1CCC(Oc2ccccc2Cc2ccccc2)CC1)C(=O)N[C@@H](CO)C(=O)N[C@@H](CC(N)=O)C(=O)NCCC(=O)N[C@@H](CCCCNC(=O)COc1ccc(/C=C/C2=[N+]3C(=Cc4ccc(-c5cccs5)n4[B-]3(F)F)C=C2)cc1)C(N)=O [Compound 31j, (S)-N1-(3-(((S)-1-Amino-6-(2-(4-((E)-2-(5,5-difluoro-7-(thiophen-2-yl)-5H-5λ^4,6λ^4-dipyrrolo[1,2-c:2’,1’-f][1,3,2]diazaborinin-3-yl)vinyl)phenoxy)acetamido)-1-oxohexan-2-yl)amino)-3-oxopropyl)-2-((S)-2-((S)-2-(3-(4-(2-benzylphenoxy)piperidin-1-yl)propanamido)-4-methylpentanamido)-3-hydroxypropanamido)succinamide] ({Propanoyl(3-Pip(4-O-2-BnPh))}-LSN[βAla]K(X1)-NH2) | 6 nM | 8.23 ± 0.06
CC(C)[C@H](NC(=O)CCN1CCC(Oc2ccccc2Cc2ccccc2)CC1)C(=O)N[C@@H](C)C(=O)N[C@@H](CC(N)=O)C(=O)NCCC(=O)N[C@@H](CCCCNC(=O)COc1ccc(/C=C/C2=[N+]3C(=Cc4ccc(-c5cccs5)n4[B-]3(F)F)C=C2)cc1)C(N)=O [Compound 31b, (S)-N1-(3-(((S)-1-Amino-6-(2-(4-((E)-2-(5,5-difluoro-7-(thiophen-2-yl)-5H-5λ^4,6λ^4-dipyrrolo[1,2-c:2’,1’-f][1,3,2]diazaborinin-3-yl)vinyl)phenoxy)acetamido)-1-oxohexan-2-yl)amino)-3-oxopropyl)-2-((S)-2-((S)-2-(3-(4-(2-benz-ylphenoxy)piperidin-1-yl)propanamido)-3-methylbutanamido)propanamido)succinamide] ({Propanoyl(3-Pip(4-O-2-BnPh))}-VAN[βAla]K(X1)-NH2) | 5 nM | 8.34 ± 0.09
C[C@@H](O)[C@H](NC(=O)CCN1CCC(Oc2ccccc2Cc2ccccc2)CC1)C(=O)N[C@@H](CO)C(=O)N[C@@H](Cc1ccc(O)cc1)C(=O)NCCC(=O)N[C@@H](CCCCNC(=O)COc1ccc(/C=C/C2=[N+]3C(=Cc4ccc(-c5cccs5)n4[B-]3(F)F)C=C2)cc1)C(N)=O [Compound 31g, (S)-2-((6S,9S,12S)-16-(4-(2-Benzylphenoxy)piperidin-1-yl)-6-(4-hydroxybenzyl)-12-((R)-1-hydroxyethyl)-9-(hydroxymethyl)-5,8,11,14-tetraoxo-4,7,10,13-tetraazahexadecanamido)-6-(2-(4-((E)-2-(5,5-difluoro-7-(thiophen-2-yl)-5H-5λ^4,6λ^4-dipyrrolo[1,2-c:2’,1’-f][1,3,2]diazaborinin-3-yl)vinyl)phenoxy)acetamido)hexanamide] ({Propanoyl(3-Pip(4-O-2-BnPh))}-TSY[βAla]K(X1)-NH2) | 7 nM | 8.16 ± 0.12
C[C@H](NC(=O)[C@H](C)NC(=O)[C@H](Cc1ccccc1)NC(=O)CCN1CCC(Oc2ccccc2Cc2ccccc2)CC1)C(=O)NCCC(=O)N[C@@H](CCCCNC(=O)CCCCCNC(=O)COc1ccc(/C=C/C2=[N+]3C(=Cc4ccc(-c5cccs5)n4[B-]3(F)F)C=C2)cc1)C(N)=O [Compound 39a, N-((5S,8S,11S,18S)-5-Benzyl-1-(4-(2-benzylphenoxy)piperidin-1-yl)-18-carbamoyl-8,11-dimethyl-3,6,9,12,16-pentaoxo-4,7,10,13,17-pentaazadocosan-22-yl)-6-(2-(4-((E)-2-(5,5-difluoro-7-(thiophen-2-yl)-5H-4λ^4,5λ^4-dipyrrolo[1,2-c:2’,1’-f][1,3,2]diazaborinin-3-yl)vinyl)phenoxy)acetamido)hexanamide] ({Propanoyl(3-Pip(4-O-2-BnPh))}-FAA[βAla]K([Ahx-X1])-NH2) | 10 nM | 7.98 ± 0.01
